In assay [1] the test system is rats suffering from TBI. The conditions noted are these: moderate to severe TBI, 16 mg/kg, 72 hours post-injury, p<0.05 (FIG. 1); cited from earlier work.
Assay [2] concerns moderate to severe TBI patients. The conditions noted are these: cited from earlier work.
Assay [3] concerns severe TBI patients. To be noted: six months; cited from earlier work.
The test system of assay [4] is rats that have suffered a concussion (mTBI). The assay is described as follows: Morris Water Maze latency to platform in mTBI (concussion) model. It is filed as in vivo, rat. The conditions noted are these: versus vehicle-injured rats (FIG. 8).
Assay [5] concerns the target T1, classical progesterone receptor (PR) (Homo sapiens, UniProt P06401).
T1 sequence (P06401 1-933): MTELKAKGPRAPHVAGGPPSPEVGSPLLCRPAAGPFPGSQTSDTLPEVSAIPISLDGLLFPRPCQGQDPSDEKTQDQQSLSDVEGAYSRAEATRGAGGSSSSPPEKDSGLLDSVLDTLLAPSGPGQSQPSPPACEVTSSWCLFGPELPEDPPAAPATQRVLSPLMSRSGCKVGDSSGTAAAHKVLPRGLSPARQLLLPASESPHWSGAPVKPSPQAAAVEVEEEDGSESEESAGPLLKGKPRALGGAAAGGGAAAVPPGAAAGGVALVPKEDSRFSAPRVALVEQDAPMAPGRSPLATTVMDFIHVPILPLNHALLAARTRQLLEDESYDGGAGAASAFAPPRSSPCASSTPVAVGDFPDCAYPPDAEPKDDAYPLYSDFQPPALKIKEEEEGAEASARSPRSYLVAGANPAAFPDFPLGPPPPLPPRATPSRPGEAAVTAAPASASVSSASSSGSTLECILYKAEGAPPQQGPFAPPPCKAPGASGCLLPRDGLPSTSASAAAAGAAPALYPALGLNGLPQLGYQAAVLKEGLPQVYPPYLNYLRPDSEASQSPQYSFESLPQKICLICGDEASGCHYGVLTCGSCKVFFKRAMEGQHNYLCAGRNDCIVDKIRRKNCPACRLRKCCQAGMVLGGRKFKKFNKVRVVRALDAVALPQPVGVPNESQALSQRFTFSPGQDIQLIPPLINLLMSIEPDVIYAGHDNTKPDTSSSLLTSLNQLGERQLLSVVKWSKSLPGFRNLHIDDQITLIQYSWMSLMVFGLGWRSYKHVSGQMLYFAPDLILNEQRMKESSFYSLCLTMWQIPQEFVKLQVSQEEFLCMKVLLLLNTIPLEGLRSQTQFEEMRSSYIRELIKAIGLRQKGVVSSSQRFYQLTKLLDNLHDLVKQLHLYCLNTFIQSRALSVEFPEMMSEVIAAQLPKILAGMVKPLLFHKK
The conditions noted are these: cited from earlier work.

The subject of assay [6] is glutathione reductase. The conditions noted are these: 72 hours post-injury, p<0.01 (FIG. 2); cited from earlier work.

Where two headings read alike, the source gives them in different places.

Consider 3 compounds from patent US20130090317A1 (priority 2011, published 2013).

With `CC(=O)[C@H]1CC[C@H]2[C@@H]3CC[C@H]4C[C@H](O)CC[C@]4(C)[C@H]3CC[C@]12C` [ALLO, allopregnanolone], the “brain water content (measure of edema)” value in assay [1] is on record as “normalizes brain water content”.
As to `CC(=O)[C@H]1CC[C@H]2[C@@H]3CCC4=CC(=O)CC[C@]4(C)[C@H]3CC[C@]12C` [Prog, progesterone], the “30 days post-injury outcomes (Glasgow Outcome Scale-Extended, Disability Rating Scale)” value in assay [2] (moderate TBI patients) is recorded as “better outcomes”; in assay [2] (patients with severe brain injuries), “little measurable difference”. The “brain water content (measure of edema)” value in assay [1] is given as “normalizes brain water content”. Also, in assay [3], the neurological outcomes long-term is listed as “better neurological outcomes long-term”. The “latency to platform, Morris Water Maze” value in assay [4] (Prog administered post-acutely (15 minutes post)) and in assay [4] (Prog administered prophylactically (15 minutes prior)) was “decreases latency to platform” each time.
For the compound `CC(=O)[C@@H]1CC[C@@H]2[C@H]3CCC4=CC(=O)CC[C@@]4(C)[C@@H]3CC[C@]21C` [ent-Prog, ent-progesterone], the “brain water content (measure of edema)” value in assay [1] was “normalizes brain water content”. In assay [5], the “activation of the classical progesterone receptor (PR)” value is “does not activate the classical progesterone receptor (PR)”. In assay [6], the “anti-oxidant activity of glutathione reductase” value was “significantly increases the anti-oxidant activity of glutathione reductase compared to all other groups”.
